# According to the supplement of paper PMC10307832:
# Columns and labels:
# Experiment in all cases: relative viability (nuclei count vs DMSO), 5 days (fraction); higher = more cells survive
# A-427 = test system: A-427
# In short: (§1)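 Relative viability was taken as the ratio of nuclei in treated wells to nuclei in vehicle wells. Lung cancer cell lines in 1536-well plates received compounds by pin tool one day after seeding, either one drug alone or a fixed anchor-drug dose plus five library-drug doses (not always all listed) in √10 steps. Nuclei were counted on 4× images after 5 days of treatment, and values are medians of duplicate plates.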
# RERF-LC-KJ = test system: RERF-LC-KJ
# In short: as §1
# NCI-H1975 = test system: NCI-H1975
# In short: as §1
# NCI-H2228 = test system: NCI-H2228
# In short: as §1
# NCI-H2126 = test system: NCI-H2126
# In short: as §1
# NCI-H358 = test system: NCI-H358
# In short: as §1
# NCI-H1915 = test system: NCI-H1915
# In short: as §1
# SW 1573 = test system: SW 1573
# In short: as §1
# NCI-H647 = test system: NCI-H647
# In short: as §1
# NCI-H2347 = test system: NCI-H2347
# In short: as §1
# HCC-78 = test system: HCC-78
# In short: as §1
# LC-2-ad = test system: LC-2-ad
# In short: as §1
# NCI-H522 = test system: NCI-H522
# In short: as §1
# LXF-289 = test system: LXF-289
# In short: as §1
# HCC-15 = test system: HCC-15
# In short: as §1
# HOP-62 = test system: HOP-62
# In short: as §1
# NCI-H2342 = test system: NCI-H2342
# In short: as §1
# NCI-H1734 = test system: NCI-H1734
# In short: as §1
# NCI-H1755 = test system: NCI-H1755
# In short: as §1
# SK-LU-1 = test system: SK-LU-1
# In short: as §1
# PC-3 [JPC-3] = test system: PC-3 [JPC-3]
# In short: as §1
# NCI-H1792 = test system: NCI-H1792
# In short: as §1
smiles,measurement,setting,value
COc1cc2nccc(Oc3ccc(NC(=O)Nc4cc(C)on4)c(Cl)c3)c2cc1OC [Tivozanib] + Nc1nc2[nH]cc(CCc3ccc(C(=O)N[C@@H](CCC(=O)O)C(=O)O)cc3)c2c(=O)[nH]1 [Pemetrexed] (partner 0.2 µM),relative viability,A-427; first compound 0.005 µM,0.973
same,relative viability,A-427; first compound 0.01581 µM,0.952
same,relative viability,A-427; first compound 0.05 µM,0.961
same,relative viability,A-427; first compound 0.1581 µM,0.926
same,relative viability,A-427; first compound 0.5 µM,0.979
same,relative viability,RERF-LC-KJ; first compound 0.005 µM,0.465
same,relative viability,RERF-LC-KJ; first compound 0.01581 µM,0.441
same,relative viability,RERF-LC-KJ; first compound 0.05 µM,0.479
same,relative viability,RERF-LC-KJ; first compound 0.1581 µM,0.465
same,relative viability,RERF-LC-KJ; first compound 0.5 µM,0.439
same,relative viability,NCI-H1975; first compound 0.005 µM,0.271
same,relative viability,NCI-H1975; first compound 0.01581 µM,0.285
same,relative viability,NCI-H1975; first compound 0.05 µM,0.283
same,relative viability,NCI-H1975; first compound 0.1581 µM,0.332
same,relative viability,NCI-H1975; first compound 0.5 µM,0.294
same,relative viability,NCI-H2228; first compound 0.005 µM,0.31
same,relative viability,NCI-H2228; first compound 0.01581 µM,0.32
same,relative viability,NCI-H2228; first compound 0.05 µM,0.369
same,relative viability,NCI-H2228; first compound 0.1581 µM,0.346
same,relative viability,NCI-H2228; first compound 0.5 µM,0.315
same,relative viability,NCI-H2126; first compound 0.005 µM,0.692
same,relative viability,NCI-H2126; first compound 0.01581 µM,0.684
same,relative viability,NCI-H2126; first compound 0.05 µM,0.691
same,relative viability,NCI-H2126; first compound 0.1581 µM,0.582
same,relative viability,NCI-H2126; first compound 0.5 µM,0.589
same,relative viability,NCI-H358; first compound 0.005 µM,0.181
same,relative viability,NCI-H358; first compound 0.01581 µM,0.18
same,relative viability,NCI-H358; first compound 0.05 µM,0.161
same,relative viability,NCI-H358; first compound 0.1581 µM,0.175
same,relative viability,NCI-H358; first compound 0.5 µM,0.176
same,relative viability,NCI-H1915; first compound 0.005 µM,0.518
same,relative viability,NCI-H1915; first compound 0.01581 µM,0.467
same,relative viability,NCI-H1915; first compound 0.05 µM,0.504
same,relative viability,NCI-H1915; first compound 0.1581 µM,0.468
same,relative viability,NCI-H1915; first compound 0.5 µM,0.46
same,relative viability,SW 1573; first compound 0.005 µM,0.761
same,relative viability,SW 1573; first compound 0.01581 µM,0.766
same,relative viability,SW 1573; first compound 0.05 µM,0.805
same,relative viability,SW 1573; first compound 0.1581 µM,0.666
same,relative viability,SW 1573; first compound 0.5 µM,0.775
same,relative viability,NCI-H647; first compound 0.005 µM,0.155
same,relative viability,NCI-H647; first compound 0.01581 µM,0.207
same,relative viability,NCI-H647; first compound 0.05 µM,0.152
same,relative viability,NCI-H647; first compound 0.1581 µM,0.189
same,relative viability,NCI-H647; first compound 0.5 µM,0.149
same,relative viability,NCI-H2347; first compound 0.005 µM,0.4
same,relative viability,NCI-H2347; first compound 0.01581 µM,0.458
same,relative viability,NCI-H2347; first compound 0.05 µM,0.388
same,relative viability,NCI-H2347; first compound 0.1581 µM,0.427
same,relative viability,NCI-H2347; first compound 0.5 µM,0.487
same,relative viability,HCC-78; first compound 0.005 µM,0.925
same,relative viability,HCC-78; first compound 0.01581 µM,0.924
same,relative viability,HCC-78; first compound 0.05 µM,0.816
same,relative viability,HCC-78; first compound 0.1581 µM,0.885
same,relative viability,HCC-78; first compound 0.5 µM,0.913
same,relative viability,LC-2-ad; first compound 0.005 µM,0.245
same,relative viability,LC-2-ad; first compound 0.01581 µM,0.289
same,relative viability,LC-2-ad; first compound 0.05 µM,0.274
same,relative viability,LC-2-ad; first compound 0.1581 µM,0.286
same,relative viability,LC-2-ad; first compound 0.5 µM,0.245
same,relative viability,NCI-H522; first compound 0.005 µM,1.03
same,relative viability,NCI-H522; first compound 0.01581 µM,1.1
same,relative viability,NCI-H522; first compound 0.05 µM,1.04
same,relative viability,NCI-H522; first compound 0.1581 µM,0.824
same,relative viability,NCI-H522; first compound 0.5 µM,1.15
same,relative viability,LXF-289; first compound 0.005 µM,0.853
same,relative viability,LXF-289; first compound 0.01581 µM,0.9
same,relative viability,LXF-289; first compound 0.05 µM,0.929
same,relative viability,LXF-289; first compound 0.1581 µM,1.04
same,relative viability,LXF-289; first compound 0.5 µM,0.887
same,relative viability,HCC-15; first compound 0.005 µM,0.21
same,relative viability,HCC-15; first compound 0.01581 µM,0.224
same,relative viability,HCC-15; first compound 0.05 µM,0.235
same,relative viability,HCC-15; first compound 0.1581 µM,0.226
same,relative viability,HCC-15; first compound 0.5 µM,0.238
same,relative viability,HOP-62; first compound 0.005 µM,0.353
same,relative viability,HOP-62; first compound 0.01581 µM,0.301
same,relative viability,HOP-62; first compound 0.05 µM,0.245
same,relative viability,HOP-62; first compound 0.1581 µM,0.36
same,relative viability,HOP-62; first compound 0.5 µM,0.232
same,relative viability,NCI-H2342; first compound 0.005 µM,0.753
same,relative viability,NCI-H2342; first compound 0.01581 µM,0.754
same,relative viability,NCI-H2342; first compound 0.05 µM,0.802
same,relative viability,NCI-H2342; first compound 0.5 µM,0.757
same,relative viability,NCI-H1734; first compound 0.005 µM,0.426
same,relative viability,NCI-H1734; first compound 0.01581 µM,0.39
same,relative viability,NCI-H1734; first compound 0.05 µM,0.404
same,relative viability,NCI-H1734; first compound 0.1581 µM,0.402
same,relative viability,NCI-H1734; first compound 0.5 µM,0.404
same,relative viability,NCI-H1755; first compound 0.005 µM,0.376
same,relative viability,NCI-H1755; first compound 0.01581 µM,0.437
same,relative viability,NCI-H1755; first compound 0.05 µM,0.571
same,relative viability,NCI-H1755; first compound 0.1581 µM,0.468
same,relative viability,NCI-H1755; first compound 0.5 µM,0.361
same,relative viability,SK-LU-1; first compound 0.005 µM,1
same,relative viability,SK-LU-1; first compound 0.01581 µM,0.928
same,relative viability,SK-LU-1; first compound 0.05 µM,0.997
same,relative viability,SK-LU-1; first compound 0.1581 µM,0.905
same,relative viability,SK-LU-1; first compound 0.5 µM,0.991
same,relative viability,PC-3 [JPC-3]; first compound 0.01581 µM,1.09
same,relative viability,PC-3 [JPC-3]; first compound 0.05 µM,1.09
same,relative viability,PC-3 [JPC-3]; first compound 0.1581 µM,1.06
same,relative viability,PC-3 [JPC-3]; first compound 0.5 µM,0.936
same,relative viability,NCI-H1792; first compound 0.005 µM,0.865
same,relative viability,NCI-H1792; first compound 0.01581 µM,0.792
same,relative viability,NCI-H1792; first compound 0.05 µM,1.02
same,relative viability,NCI-H1792; first compound 0.5 µM,1
